The experiment addresses T1, recombinant human 5-HT5A receptor (Homo sapiens, UniProt P47898).
T1 construct: expressed in transfected cells; host or cells: Human Embryonic Kidney-EBNA (HEK-EBNA) cells, transient cDNA expression; membranes
Put plainly: [3H]LSD radioligand binding assay. To be noted: for Ki: [3H]LSD approx. 1 nM, membranes from HEK-EBNA cells transiently expressing 5-HT5A, Ki from IC50 by Cheng-Prussoff. The protocol: A [^3H]LSD radioligand binding assay was used to determine the affinity of the compounds for the recombinant human 5-HT5A receptor, in membranes from transiently (cDNA) expressed 5-HT5A receptors in Human Embryonic Kidney-EBNA (HEK-EBNA) cells. Assay buffer consisted of Tris (50 mM) buffer containing 1 mM EGTA, 10 mM MgCl2 (pH 7.4) and 10 μM pargyline. The binding assay was carried out in 96-well-plates in the presence of [^3H]LSD (approximately 1 nM), approximately 2 μg/well of membrane protein, and 0.5 mg of Ysi-poly-l-lysine SPA beads in a final volume of 200 μl of buffer. Non-specific binding was defined using methiothepin 2 μM. Compounds were tested at 10 concentrations. All assays were conducted in duplicate and repeated at least two times. Assay plates were incubated for 120 min at room temperature before centrifugation. Bound ligand was determined using a Packard Topcount scintillation counter. IC50 values were calculated using a non-linear curve fitting program and Ki values calculated using the Cheng-Prussoff equation.

Molecules are shown by their SMILES.

T1 sequence (P47898 whole entry): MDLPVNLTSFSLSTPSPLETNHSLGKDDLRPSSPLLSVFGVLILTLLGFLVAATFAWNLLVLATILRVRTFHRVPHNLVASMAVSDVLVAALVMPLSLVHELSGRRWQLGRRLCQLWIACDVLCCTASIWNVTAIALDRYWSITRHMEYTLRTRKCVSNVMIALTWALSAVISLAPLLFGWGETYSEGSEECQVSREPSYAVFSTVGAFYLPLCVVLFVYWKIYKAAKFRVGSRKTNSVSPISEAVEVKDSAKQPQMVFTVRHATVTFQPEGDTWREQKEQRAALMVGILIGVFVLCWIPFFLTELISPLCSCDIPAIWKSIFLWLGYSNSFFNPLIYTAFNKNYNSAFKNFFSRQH

Consider `COc1ccccc1CNc1ccc2c(OCC[S+]([O-])c3ccccc3)cccc2n1` (centres unmarked) [Example 83, [5-(2-Benzenesulfinyl-ethoxy)-quinolin-2-yl]-(2-methoxy-benzyl)-amine], for which the Ki (usually the dissociation constant of the complex between target and ligand, obtained from inhibition or displacement) turned out to be 95.6 nM. The same measure, in the same setting: the figure for `c1cc(Nc2ccc3c(NCc4cccc5[nH]ccc45)cccc3n2)cc(C2CC2)c1` [Example 164, N2-(3-Cyclopropyl-phenyl)-N5-(1H-indol-4-ylmethyl)-quinoline-2,5-diamine] is 16.6 nM. On the same count and under the same terms, the figure for `COc1ccccc1CNc1ccc2c(NS(=O)(=O)c3ccc(F)cc3)cccc2n1` [Example 61, 4-Fluoro-N-[2-(2-methoxy-benzylamino)-quinolin-5-yl]-benzenesulfonamide] is 19.2 nM; for `COc1ccccc1CNc1ccc2c(C(=O)c3ccc(F)cc3)cccc2n1` [Example 137, (4-Fluoro-phenyl)-[2-(2-methoxy-benzylamino)-quinolin-5-yl]-methanone] it is 50.9 nM. Same read-out and setting: the value for `c1cc(CNc2ccc3c(NCc4cccc5[nH]ccc45)cccc3n2)c2c(c1)OCCO2` [Example 118, N2-(2,3-Dihydro-benzo[1,4]dioxin-5-ylmethyl)-N5-(1H-indol-4-ylmethyl)-quinoline-2,5-diamine] was 5.66 nM; that for `COc1cccc(OC)c1CNc1ccc2c(NCc3cccnc3)cccc2n1` [Example 99, N2-(2,6-Dimethoxy-benzyl)-N5-pyridin-3-ylmethyl-quinoline-2,5-diamine] was 84.6 nM.

As to `COc1ccccc1CNc1ccc2c(NCc3cccnc3)cccc2n1` [Example 1, N2-(2-Methoxy-benzyl)-N5-pyridin-3-ylmethyl-quinoline-2,5-diamine], the Ki was 8.65 nM. The same measure, in the same setting: the value for `COc1cccc(CNc2cccc3nc(NCc4ccccc4OC)ccc23)c1` [Example 5, N5-(3-Methoxy-benzyl)-N2-(2-methoxy-benzyl)-quinoline-2,5-diamine] was 9.7 nM. In the case of `CC1Cc2cccc(Nc3ccc4c(NCc5cccc6[nH]ccc56)cccc4n3)c2O1` (centres unmarked) [Example 140, N5-(1H-Indol-4-ylmethyl)-N2-(2-methyl-2,3-dihydro-benzofuran-7-yl)-quinoline-2,5-diamine], the Ki is 11.9 nM. For the molecule `Cc1cc2cccc(Nc3ccc4c(NCc5[nH]cnc5C)cccc4n3)c2o1` [Example 125, N2-(2-Methyl-benzofuran-7-yl)-N5-(5-methyl-3H-imidazol-4-ylmethyl)-quinoline-2,5-diamine], the Ki is 2.33 nM. Still for that read-out and setting: the value for `Cc1ccc(CNc2ccc3c(NS(=O)(=O)Nc4ccc(F)cc4)cccc3n2)o1` [Example 154, N-(2-{[(5-methyl-2-furyl)methyl]amino}quinolin-5-yl)-N′-(4-fluorophenyl)sulfamide] was 25.5 nM. On the same count and under the same terms, the value for `Cc1ccc(CNc2ccc3c(NCc4cccc(S(N)(=O)=O)c4)cccc3n2)o1` [Example 35, 3-({2-[(5-Methyl-furan-2-ylmethyl)-amino]-quinolin-5-ylamino}-methyl)-benzenesulfonamide] was 17 nM.

As for `CC(Nc1cccc2nc(Nc3cccc4c3OC(C)(C)C4)ccc12)c1cc(F)cc(F)c1` (single isomer, unassigned; (+)) [Example 158, (+)-N5-[1-(3,5-Difluoro-phenyl)-ethyl]-N2-(2,2-dimethyl-2,3-dihydro-benzofuran-7-yl)-quinoline-2,5-diamine], the “activity at the 5-HT5A receptor (in words)” value was “more active” and the Ki stood at 3.1 nM.

For the molecule `CC(Nc1cccc2nc(Nc3cccc4c3OC(C)(C)C4)ccc12)c1nccs1` (racemic) [Example 160, rac-N2-(2,2-Dimethyl-2,3-dihydro-benzofuran-7-yl)-N5-(1-thiazol-2-yl-ethyl)-quinoline-2,5-diamine], the Ki stood at 15.8 nM. Same read-out and setting: the figure for `COc1ccccc1CNc1ccc2c(OCCS(=O)(=O)c3ccccc3)cccc2n1` [Example 84, [5-(2-Benzenesulfonyl-ethoxy)-quinolin-2-yl]-(2-methoxy-benzyl)-amine] is 88.3 nM; for `Cc1ccc(CNc2ccc3c(NCc4ccccc4N4CCN(C)CC4)cccc3n2)o1` [Example 105, N2-(5-Methyl-furan-2-ylmethyl)-N5-[2-(4-methyl-piperazin-1-yl)-benzyl]-quinoline-2,5-diamine] it is 24.1 nM.

In the case of `COc1ccccc1CNc1ccc2c(NCc3ccc4nc[nH]c4c3)cccc2n1` [Example 114, N5-(3H-Benzoimidazol-5-ylmethyl)-N2-(2-methoxy-benzyl)-quinoline-2,5-diamine], the Ki was found to be 3.33 nM. With `CC1(C)Cc2cccc(Nc3ccc4c(NCc5cccc6[nH]ccc56)cccc4n3)c2O1` [Example 147, N2-(2,2-Dimethyl-2,3-dihydro-benzofuran-7-yl)-N5-(1H-indol-4-ylmethyl)-quinoline-2,5-diamine], the Ki turned out to be 4.31 nM. With `Cc1ccc(CNc2ccc3c(Nc4ccc(F)c5[nH]ccc45)cccc3n2)o1` [Example 119, N5-(7-Fluoro-1H-indol-4-yl)-N2-(5-methyl-furan-2-ylmethyl)-quinoline-2,5-diamine], the Ki came out at 8.45 nM. The same measure, in the same setting: the figure for `COc1ccccc1CNc1ccc2c(NCc3ccccc3)cccc2n1` [Example 7, N5-Benzyl-N2-(2-methoxy-benzyl)-quinoline-2,5-diamine] is 7.57 nM. Take `Cc1ccc(CNc2ccc3c(NS(=O)(=O)c4ccc(Cl)nc4)cccc3n2)o1` [Example 59, 6-Chloro-pyridine-3-sulfonic acid {2-[(5-methyl-furan-2-ylmethyl)-amino]-quinolin-5-yl}-amide]: the inhibition constant Ki is 19.9 nM. The same measure, in the same setting: the value for `O=S(=O)(Nc1cccc2nc(NCCOc3ccccc3)ccc12)c1cc(F)cc(F)c1` [Example 77, 3,5-Difluoro-N-[2-(2-phenoxy-ethylamino)-quinolin-5-yl]-benzenesulfonamide] was 19.1 nM.

Consider `Cc1ccc(CNc2ccc3c(Nc4cccc5cc[nH]c45)cccc3n2)o1` [Example 93, N5-(1H-Indol-7-yl)-N2-(5-methyl-furan-2-ylmethyl)-quinoline-2,5-diamine], for which the Ki worked out at 28.2 nM. On the same count and under the same terms, the figure for `Cc1ccc(CNc2ccc3c(NCc4cccc5[nH]ccc45)cccc3n2)o1` [Example 91, N5-(1H-Indol-4-ylmethyl)-N2-(5-methyl-furan-2-ylmethyl)-quinoline-2,5-diamine] is 5.25 nM. For `Cc1ccc(CNc2ccc3c(NC4CCSc5ccccc54)cccc3n2)o1` (racemic) [Example 135, rac-N2-(5-Methyl-furan-2-ylmethyl)-N5-thiochroman-4-yl-quinoline-2,5-diamine], the Ki came to 17.1 nM. Regarding `CC(Nc1cccc2nc(Nc3cccc4c3OC(C)(C)C4)ccc12)c1cc(F)cc(F)c1` (racemic) [Example 151, rac-N5-[1-(3,5-Difluoro-phenyl)-ethyl]-N2-(2,2-dimethyl-2,3-dihydro-benzofuran-7-yl)-quinoline-2,5-diamine], the inhibition constant (Ki) worked out at 4.74 nM. On the same count and under the same terms, the value for `COc1ccccc1CNc1ccc2c(NCc3nccs3)cccc2n1` [Example 110, N2-(2-Methoxy-benzyl)-N5-thiazol-2-ylmethyl-quinoline-2,5-diamine] was 16.8 nM; that for `COc1cccc(OC)c1CNc1ccc2c(NCc3cccc4[nH]ccc34)cccc2n1` [Example 109, N2-(2,6-Dimethoxy-benzyl)-N5-(1H-indol-4-ylmethyl)-quinoline-2,5-diamine] was 97.3 nM. Consider `Cc1cc2cccc(Nc3ccc4c(NCc5ccc6[nH]cnc6c5)cccc4n3)c2o1` [Example 124, N5-(1H-Benzoimidazol-5-ylmethyl)-N2-(2-methyl-benzofuran-7-yl)-quinoline-2,5-diamine], for which the Ki was 6.29 nM.

Turning to `Cc1ccc(CNc2ccc3c(Nc4ccc(Cl)nc4)cccc3n2)o1` [Example 57, N5-(6-Chloro-pyridin-3-yl)-N2-(5-methyl-furan-2-ylmethyl)-quinoline-2,5-diamine], the Ki was found to be 31.4 nM.

Turning to `CC(C)(C)c1cccc(Nc2ccc3c(NS(=O)(=O)c4cc(F)cc(F)c4)cccc3n2)c1` [Example 161, N-[2-(3-tert-Butyl-phenylamino)-quinolin-5-yl]-3,5-difluoro-benzenesulfonamide], the Ki was found to be 35.5 nM. Take `COc1ccccc1CNc1ccc2c(CCc3cccnc3)cccc2n1` [Example 16, (2-Methoxy-benzyl)-[5-(2-pyridin-3-yl-ethyl)-quinolin-2-yl]-amine]: the Ki worked out at 32.6 nM. On to `COc1ccccc1CNc1ccc2c(CCc3cccc(CO)c3)cccc2n1` [Example 23, (3-{2-[2-(2-Methoxy-benzylamino)-quinolin-5-yl]-ethyl}-phenyl)-methanol], for which the Ki is 18.4 nM.

With `COCc1cccc(CCc2cccc3nc(NCc4ccc(C)o4)ccc23)c1` [Example 33, {5-[2-(3-Methoxymethyl-phenyl)-ethyl]-quinolin-2-yl}-(5-methyl-furan-2-ylmethyl)-amine], the Ki worked out at 39.3 nM. Still for that read-out and setting: the figure for `Cc1cc2cccc(Nc3ccc4c(NCc5cnc[nH]5)cccc4n3)c2o1` [Example 131, N5-(3H-Imidazol-4-ylmethyl)-N2-(2-methyl-benzofuran-7-yl)-quinoline-2,5-diamine] is 17.4 nM; for `COc1ccccc1CNc1ccc2c(CCc3ccccc3)cccc2n1` [Example 4, (2-Methoxy-benzyl)-(5-phenethyl-quinolin-2-yl)-amine] it is 9.51 nM. On the same count and under the same terms, the figure for `Cc1ccc(CNc2ccc3c(NCc4cnn[nH]4)cccc3n2)o1` [Example 115, N2-(5-Methyl-furan-2-ylmethyl)-N5-(3H-[1,2,3]triazol-4-ylmethyl)-quinoline-2,5-diamine] is 35.3 nM.
